Test results as given in US7687643B2, “Process for preparing 3,3-dimethylindolines” (Amgen Inc., priority 2001, dated 2010).

System: Human Umbilical Vein Endothelial cells (VEGF-stimulated)
Assay: HUVEC proliferation assay, VEGF-stimulated
Format: cell-based
Details: VEGF 50 ng/mL, 72 h, CyQuant, read-out: inhibited VEGF-stimulated HUVEC proliferation at a level
Procedure: Human Umbilical Vein Endothelial cells are purchased from Clonetics, Inc., as cryopreserved cells harvested from a pool of donors. These cells, at passage 1, are thawed and expanded in EBM-2 complete medium, until passage 2 or 3. The cells are trypsinized, washed in DMEM+10% FBS+antibiotics, and spun at 1000 rpm for 10 min. Prior to centrifugation of the cells, a small amount is collected for a cell count. After centrifugation, the medium is discarded, and the cells are resuspended in the appropriate volume of DMEM+10% FBS+antibiotics to achieve a concentration of 3×10^5 cells/mL. Another cell count is performed to confirm the cell concentration. The cells are diluted to 3×10^4 cells/mL in DMEM+10% FBS+antibiotics, and 100 μL of cells are added to a 96-well plate. The cells are incubated at 37° C. for 22 h.
Prior to the completion of the incubation period, compound dilutions are prepared. Five-point, five-fold serial dilutions are prepared in DMSO, at concentrations 400-fold greater than the final concentrations desired. 2.5 μL of each compound dilution are diluted further in a total of 1 mL DMEM+10% FBS+antibiotics (400× dilution). Medium containing 0.25% DMSO is also prepared for the 0 μM compound sample. At the 22-hour timepoint, the medium is removed from the cells, and 100 μL of each compound dilution is added. The cells are incubated at 37° C. for 2-3 h.
During the compound pre-incubation period, the growth factors are diluted to the appropriate concentrations. Solutions of DMEM+10% FBS+antibiotics, containing either VEGF or bFGF at the following concentrations: 50, 10, 2, 0.4, 0.08, and 0 ng/mL are prepared. For the compound-treated cells, solutions of VEGF at 550 ng/mL or bFGF at 220 ng/mL for 50 ng/mL or 20 ng/mL final concentrations, respectively, are prepared since 10 μL of each will be added to the cells (110 μL final volume). At the appropriate time after adding the compounds, the growth factors are added. VEGF is added to one set of plates, while bFGF is added to another set of plates. For the growth factor control curves, the media on wells B4-G6 of plates 1 and 2 are replaced with media containing VEGF or bFGF at the varying concentrations (50-0 ng/mL). The cells are incubated at 37° C. for an additional 72 h.
At the completion of the 72 h incubation period, the medium is removed, and the cells are washed twice with PBS. After the second wash with PBS, the plates are tapped gently to remove excess PBS, and the cells are placed at −70° C. for at least 30 min. The cells are thawed and analyzed using the CyQuant fluorescent dye (Molecular Probes C-7026), following the manufacturer's recommendations. The plates are read on a Victor/Wallac 1420 workstation at 485 nm/530 nm (excitation/emission). Raw data are collected and analyzed using a 4-parameter fit equation in XLFit. IC50 values are then determined.

**Q.** How did the IC50 turn out when CC(=O)N1CC(C)(C)c2ccc(NC(=O)c3cccnc3NCc3ccncn3)cc21 [Example 1022, N-(1-Acetyl-3,3-dimethyl-2,3-dihydro-1H-indol-6-yl)-2-((4-pyrimidinylmethyl)amino)-3-pyridinecarboxamide] was run?
**A.** < 50 nM

**Q.** Which IC50 does the source give for CC(C)(C)OC(=O)N1CCC[C@@H]1COc1cc(NC(=O)c2cccnc2NCc2ccncc2)cc(C(F)(F)F)c1 [Example 916, (R) N-[3-(1-Boc-pyrrolidin-2-ylmethoxy)-5-trifluoromethyl-phenyl]-2-[(pyridin-4-ylmethyl)-amino]-nicotinamide] here?
**A.** < 50 nM

**Q.** With CCOC(=O)N1CC2(CC2)c2ccc(NC(=O)c3cccnc3NCc3ccnc(NC)n3)cc21 [Example 1108, Ethyl [1,2-dihydro-6-({2-[(2-methylamino-pyrimidin-4-ylmethyl)-amino]-pyridine-3-carbonyl}-amino)-3-spiro-1′-cyclopropyl-1H-indole]-1-carbamate] as the molecule, how does the IC50 read?
**A.** < 50 nM

**Q.** O=C(Nc1cc(CCCN2CCOCC2)cc(C(F)(F)F)c1)c1cccnc1NCc1ccncc1 [Example 964, N-[3-(3-Morpholin-4-yl-propyl)-5-trifluoromethyl-phenyl]-2-[(pyridin-4-ylmethyl)-amino]-nicotinamide] was tested. Which IC50 did it give?
**A.** < 50 nM

**Q.** With O=C(Nc1cccc(C(F)(F)F)c1)c1ccc(F)nc1NCc1ccncc1 [Example 156, {6-Fluoro-2-[(4-pyridylmethyl)amino](3-pyridyl)}-N-[3-(trifluoromethyl)phenyl]carboxamide] as the molecule, how does the IC50 read?
**A.** < 50 nM

**Q.** With CN(C)CC(=O)N1CC(C)(C)c2ccc(NC(=O)c3cccnc3NCc3ccnc4ccccc34)cc21 [Example 1030, N-(1-(N,N-Dimethylglycyl)-3,3-dimethyl-2,3-dihydro-1H-indol-6-yl)-2-((4-quinolinylmethyl)amino)-3-pyridinecarboxamide] as the molecule, how does the IC50 read?
**A.** < 50 nM

**Q.** CNc1nccc(CNc2ncccc2C(=O)Nc2ccc3c(c2)N(C(=O)CN(C)C)CC3(C)C)n1 [Example 1039, N-(1-(N,N-Dimethylglycyl)-3,3-dimethyl-2,3-dihydro-1H-indol-6-yl)-2-(((2-(methylamino)-4-pyrimidinyl)methyl)amino)-3-pyridinecarboxamide] was tested. Which IC50 did it give?
**A.** < 50 nM

**Q.** Which IC50 does the source give for CC(C)(C)c1ccc(NC(=O)c2cccnc2NCc2ccc3c(c2)CCO3)cc1 [Example 826, N-[4-(tert-Butyl)phenyl]{2-[(2,3-dihydrobenzo[b]furan-5-ylmethyl)amino](3-pyridyl)}carboxamide] here?
**A.** < 50 nM

**Q.** CC(C)N1CCC[C@H]1COc1cc(NC(=O)c2cccnc2NCc2ccncc2)cc(C(F)(F)F)c1 [Example 1096, N-(3-((((2S)-1-(1-methylethyl)-2-pyrrolidinyl)methyl)oxy)-5-(trifluoromethyl)phenyl)-2-((4-pyridinylmethyl)amino)-3-pyridinecarboxamide] was tested. Which IC50 did it give?
**A.** < 50 nM

**Q.** With CNc1nccc(CNc2ncccc2C(=O)Nc2ccc3c(c2)N(C(C)=O)CC3(C)C)n1 [Example 1045, N-(1-acetyl-3,3-dimethyl-2,3-dihydro-1H-indol-6-yl)-2-(((2-(methylamino)-4-pyrimidinyl)methyl)amino)-3-pyridinecarboxamide] as the molecule, how does the IC50 read?
**A.** < 50 nM

**Q.** How did the IC50 turn out when CNc1cc(CNc2ncccc2C(=O)Nc2ccc3c(c2)N(S(C)(=O)=O)CC3(C)C)ccn1 [Example 1058, N-(3,3-dimethyl-1-(methylsulfonyl)-2,3-dihydro-1H-indol-6-yl)-2-(((2-(methylamino)-4-pyridinyl)methyl)amino)-3-pyridinecarboxamide] was run?
**A.** < 50 nM

**Q.** With O=C(Nc1ccc(C(OC[C@@H]2CCCN2)(C(F)(F)F)C(F)(F)F)cc1)c1cccnc1NCc1ccncc1 [Example 1141, 2-[(Pyridin-4-ylmethyl)-amino]-N-{4-[2,2,2-trifluoro-1-(pyrrolidin-2-ylmethoxy)-1-trifluoromethyl-ethyl]-phenyl}-nicotinamide] as the molecule, how does the IC50 read?
**A.** < 50 nM

**Q.** CCN1CCC(C)(C)c2ccc(NC(=O)c3cccnc3NCc3ccnc(N)c3)cc21 [Example 1125, 2-[(2-Amino-pyridin-4-ylmethyl)-amino]-N-(1-ethyl-4,4-dimethyl-1,2,3,4-tetrahydro-quinolin-7-yl)-nicotinamide] was tested. Which IC50 did it give?
**A.** < 50 nM

**Q.** CC1(C)CN(S(C)(=O)=O)c2cc(NC(=O)c3cccnc3NCc3ccnc(N)c3)ccc21 [Example 1059, 2-(((2-amino-4-pyridinyl)methyl)amino)-N-(3,3-dimethyl-1-(methylsulfonyl)-2,3-dihydro-1H-indol-6-yl)-3-pyridinecarboxamide] was tested. Which IC50 did it give?
**A.** < 50 nM

**Q.** O=C(Nc1cccc(C(OC[C@@H]2CCCN2)(C(F)(F)F)C(F)(F)F)c1)c1cccnc1NCc1ccncc1 [Example 1138, 2-[(Pyridin-4-ylmethyl)-amino]-N-{3-[2,2,2-trifluoro-1-(pyrrolidin-2-ylmethoxy)-1-trifluoromethyl-ethyl]-phenyl}-nicotinamide] was tested. Which IC50 did it give?
**A.** < 50 nM

**Q.** How did the IC50 turn out when CNc1nccc(CNc2ncccc2C(=O)Nc2ccc3c(n2)NC(=O)CC3(C)C)n1 [Example 1135, N-(5,5-Dimethyl-7-oxo-5,6,7,8-tetrahydro-[1,8]naphthyridin-2-yl)-2-[(2-methylamino-pyrimidin-4-ylmethyl)-amino]-nicotinamide] was run?
**A.** < 50 nM

**Q.** For CN1CCC(CCCOc2cc(CNc3ncccc3C(=O)Nc3ccc(C(C)(C)C)cc3)ccn2)CC1 [Example 924, 2-({2-[3-(1-Methyl-piperidin-4-yl)-propoxy]-pyridin-4-ylmethyl}-amino)-N-(4-tert-butyl-phenyl)-nicotinamide], which IC50 is on record?
**A.** < 50 nM

**Q.** O=C(Nc1cc(NC(=O)c2cccnc2NCc2ccncn2)cc(C(F)(F)F)c1)O[C@H]1CCOC1 [Example 1086, (3S)-tetrahydro-3-furanyl 3-(((2-((4-pyrimidinylmethyl)amino)-3-pyridinyl)carbonyl)amino)-5-(trifluoromethyl)phenylcarbamate] was tested. Which IC50 did it give?
**A.** < 50 nM

**Q.** Which IC50 does the source give for CNc1cc(CNc2ncccc2C(=O)Nc2ccc3c(c2)NCC3(C)C)ccn1 [Example 1104, N-(3,3-Dimethyl-2,3-dihydro-1H-indol-6-yl)-2-[(2-methylamino-pyridin-4-ylmethyl)-amino]-nicotinamide] here?
**A.** < 50 nM

**Q.** For COc1nccc(CNc2ncccc2C(=O)Nc2cc(OC[C@@H]3CCCN3C)cc(C(F)(F)F)c2)n1 [Example 1047, 2-(((2-(methyloxy)-4-pyrimidinyl)methyl)amino)-N-(3-((((2S)-1-methyl-2-pyrrolidinyl)methyl)oxy)-5-(trifluoromethyl)phenyl)-3-pyridinecarboxamide], which IC50 is on record?
**A.** < 50 nM

**Q.** COC(=O)C(C)(C)c1ccc(NC(=O)c2cccnc2NCc2ccncc2)cc1 [Example 985, 2-Methyl-2-[4-({2-[(pyridin-4-ylmethyl)-amino]-pyridine-3-carbonyl}-amino)-phenyl]-propionic acid methyl ester] was tested. Which IC50 did it give?
**A.** < 50 nM

**Q.** With CNc1nccc(CNc2ncccc2C(=O)Nc2cc(OC[C@H]3CCCN3C(C)=O)cc(C(F)(F)F)c2)n1 [Example 1085, N-(3-((((2R)-1-acetyl-2-pyrrolidinyl)methyl)oxy)-5-(trifluoromethyl)phenyl)-2-(((2-(methylamino)-4-pyrimidinyl)methyl)amino)-3-pyridinecarboxamide] as the molecule, how does the IC50 read?
**A.** < 50 nM

**Q.** CN1CCC[C@@H]1COc1cc(NC(=O)c2cccnc2NCc2ccncc2)cc(C(F)(F)F)c1 [Example 917, (R) N-[3-(1-Methyl-pyrrolidin-2-ylmethoxy)-5-trifluoromethyl-phenyl]-2-[(pyridin-4-ylmethyl)-amino]-nicotinamide] was tested. Which IC50 did it give?
**A.** < 50 nM

**Q.** How did the IC50 turn out when CCN1CCC(C)(C)c2ccc(NC(=O)c3cccnc3NCc3ccncc3)cc21 [Example 1124, N-(1-Ethyl-4,4-dimethyl-1,2,3,4-tetrahydro-quinolin-7-yl)-2-[(pyridin-4-ylmethyl)-amino]-nicotinamide] was run?
**A.** < 50 nM

**Q.** COc1cc(CNc2ncccc2C(=O)Nc2ccc3c(c2)NCCC3(C)C)ccn1 [Example 1113, N-(4,4-Dimethyl-1,2,3,4-tetrahydro-quinolin-7-yl)-2-[(2-methoxy-pyridin-4-ylmethyl)-amino]-nicotinamide] was tested. Which IC50 did it give?
**A.** < 50 nM

**Q.** Which IC50 does the source give for CNc1cc(CNc2ncccc2C(=O)Nc2cc(OC[C@@H]3CCCN3C)cc(C(F)(F)F)c2)ccn1 [Example 1143, 2-[(2-Methylamino-pyridin-4-ylmethyl)-amino]-N-[3-(1-methyl-pyrrolidin-2-ylmethoxy)-5-trifluoromethyl-phenyl]-nicotinamide] here?
**A.** < 50 nM
